Results from the supplement of paper PMC13380429.

Columns and labels:
Details in all cases: 72 h
Caco-2 [1] = assay: cell viability relative to DMSO; higher = less toxic
Calu-3 [2] = assay: as above
HepG2 [3] = assay: as above
U2OS [4] = assay: as above
Vero E6 [5] = assay: as above
Caco-2 [6] = assay: relative viability EC50 (midpoint between 100% and the lowest measured viability); higher = less toxic
Calu-3 [7] = assay: as above
HepG2 [8] = assay: as above
U2OS [9] = assay: as above
Vero E6 [10] = assay: as above
Caco-2 [11] = assay: drug sensitivity score (DSS) for viability; higher = more toxic; extreme values may be limits of the assay
Calu-3 [12] = assay: as above
HepG2 [13] = assay: as above
U2OS [14] = assay: as above
Vero E6 [15] = assay: as above

Compound	cell viability (Caco-2 [1]; 1 nM) [%]	cell viability (Caco-2 [1]; 10 nM) [%]	cell viability (Caco-2 [1]; 100 nM) [%]	cell viability (Caco-2 [1]; 1000 nM) [%]	cell viability (Caco-2 [1]; 10000 nM) [%]	cell viability (Calu-3 [2]; 1 nM) [%]	cell viability (Calu-3 [2]; 10 nM) [%]	cell viability (Calu-3 [2]; 100 nM) [%]	cell viability (Calu-3 [2]; 1000 nM) [%]	cell viability (Calu-3 [2]; 10000 nM) [%]	cell viability (HepG2 [3]; 1 nM) [%]	cell viability (HepG2 [3]; 10 nM) [%]	cell viability (HepG2 [3]; 100 nM) [%]	cell viability (HepG2 [3]; 1000 nM) [%]	cell viability (HepG2 [3]; 10000 nM) [%]	cell viability (U2OS [4]; 1 nM) [%]	cell viability (U2OS [4]; 10 nM) [%]	cell viability (U2OS [4]; 100 nM) [%]	cell viability (U2OS [4]; 1000 nM) [%]	cell viability (U2OS [4]; 10000 nM) [%]	cell viability (Vero E6 [5]; 1 nM) [%]	cell viability (Vero E6 [5]; 10 nM) [%]	cell viability (Vero E6 [5]; 100 nM) [%]	cell viability (Vero E6 [5]; 1000 nM) [%]	cell viability (Vero E6 [5]; 10000 nM) [%]	relative viability EC50 (Caco-2 [6]) [µM]	relative viability EC50 (Calu-3 [7]) [µM]	relative viability EC50 (HepG2 [8]) [µM]	relative viability EC50 (U2OS [9]) [µM]	relative viability EC50 (Vero E6 [10]) [µM]	drug sensitivity score (Caco-2 [11])	drug sensitivity score (Calu-3 [12])	drug sensitivity score (HepG2 [13])	drug sensitivity score (U2OS [14])	drug sensitivity score (Vero E6 [15])
CC1(C)CC(=O)C(C2C3=C(CC(C)(C)CC3=O)Oc3ccccc32)C(=O)C1 (stereo not given)	99.2	93.7	96.5	95.8	99.2	93	98.1	98	101	109	92.1	103	97.5	96.8	102	96.7	101	95	98.2	101	102	98	103	102	100	> 10	> 10	> 10	> 10	> 10	0	0	0	0	0
CCC(=N\O)/C(C)=C/c1ccc(F)cc1	93.9	91.4	89.5	96.4	97.5	104	98.5	95.9	107	95	91.9	107	102	102	91	98.4	100	98.4	103	95	99.1	99.2	102	98.5	98.8	> 10	> 10	> 10	> 10	> 10	0	0	0	0	0
CCN(CC)CCCC(C)Nc1nc(C)cc(Nc2ccc3nc(C)cc(N)c3c2)n1 (stereo not given)	102	97.2	99.5	95	105	104	92	95.4	92.5	110	96	99.9	100	95.6	79.9	106	97.6	100	97.8	102	97.7	102	104	97.9	97.6	> 10	> 10	> 10	> 10	> 10	0	0	1.2	0	0
CN(C)Cc1ccc(-c2nc3cccc4c3n2CCNC4=O)cc1	92.8	117	104	100	98.2	85.7	90.3	80.8	73.7	99.7	109	93.3	97.5	95.9	77.1	93.6	98	94.6	100	99.8	104	95.9	103	96	101	> 10	> 10	> 10	> 10	> 10	0	0	1.4	0	0
CNc1nc(C)nc(N[C@H]2CCC[C@@H](C(=O)NCc3ccc(C#N)cc3C(F)(F)F)C2)n1	87.8	102	91.8	98.6	95.1	93.9	98.1	97	93.2	89.4	99.4	98.7	103	94.7	111	97	100	97.9	107	99.9	99.3	96.8	100	96.8	108	> 10	> 10	> 10	> 10	> 10	0	0	0	0	0
COc1cc(Nc2nc3ccccc3nc2NS(=O)(=O)c2ccc(NC(=O)c3ccc(C)c(OC)c3)cc2)cc(OC)c1	95.4	100	96	97.7	103	109	85.9	109	94.4	110	101	83.8	92.1	99.1	89.7	97	97.7	97.1	95.9	103	99.9	95.9	102	95.7	99.9	> 10	> 10	> 10	> 10	> 10	0	0	0	0	0
COc1cccc(CN(C(=O)CC(C)(C)C)[C@H]2C[C@@H](C(=O)N3CCNCC3)N(Cc3ccc4c(c3)OCO4)C2)c1	98.4	106	98.3	102	87.5	93.6	98	95.3	92.4	102	94.8	96.2	87.2	104	91.4	95.2	98	97.3	97	90.7	101	102	107	98.2	95.6	> 10	> 10	> 10	> 10	> 10	0	0	0	0	0
COc1ncc(-c2ccc3nccc(-c4ccnnc4)c3c2)cc1NS(=O)(=O)c1ccc(F)cc1F	84.8	60.2	19	25.3	28.8	79.4	47.4	22.2	19.5	17.4	98.8	77.2	46.3	25	29.2	91	80.3	34.2	13.9	0.9	90.2	80.1	38.9	22.6	15.1	0.0081	0.0044	0.0297	0.0484	0.0351	29.8	32.5	22.2	26.2	24.1
Cc1cc(SCc2sc(-c3ccc(C(F)(F)F)cc3)nc2C)ccc1OCC(=O)O	99.9	103	104	103	96.2	108	92.8	92.6	99.5	102	99	101	106	104	96.1	98.4	102	99.9	107	99	106	104	103	97.6	97.3	> 10	> 10	> 10	> 10	> 10	0	0	0	0	0
Clc1cccc2c1CN(C1=NCCN1)C2	100	100	95.6	98.8	97.3	97.1	90.1	109	101	98.3	96.7	101	91.8	92.5	97.3	101	101	97.3	102	92.1	98.9	98.7	104	98.5	99.2	> 10	> 10	> 10	> 10	> 10	0	0	0	0	0
NC(=O)N/N=C/c1ccc(Oc2ccc(F)cc2)cc1	99.6	98.4	104	96.8	97.9	99.9	101	80.1	92.8	109	95.8	106	92.4	89.7	96	95.9	94.5	98.9	97.6	99.4	105	101	104	100	86.6	> 10	> 10	> 10	> 10	> 10	0	0	0.1	0	0.1
O=C(NCC1CCOCC1)c1cnc(Nc2ccc(Cl)cc2Cl)nc1C(F)(F)F	104	99.3	113	104	101	104	107	100	99.4	105	105	102	102	99.2	112	96.5	102	96	95.5	93.2	99.8	91.9	94.8	93.1	98.9	> 10	> 10	> 10	> 10	> 10	0	0	0	0	0
O=C(N[C@H]1CN2CCC1CC2)c1ccc2c(c1)OCCO2	93.6	95.2	87.5	101	99.1	93.6	98.3	102	102	99.3	101	93	108	97.7	94.6	98.8	94.8	97.8	95.3	97.2	100	89.3	97.2	91.3	107	> 10	> 10	> 10	> 10	> 10	0	0	0	0	0
O=C(Nc1ccccc1)N1CCN(c2nc(-c3ccccc3)ns2)CC1	100	97.8	101	95.4	86.7	116	102	106	96.8	102	100	118	101	106	76.9	104	99.5	97.8	99.6	98.9	93.3	96.3	94.1	93	83	> 10	> 10	> 10	> 10	> 10	0.4	0	0.6	0	0.3
